Where two headings read alike, the source gives them in different places.
Key:
[1] = target: Full length wild-type cereblon CRBN (Homo sapiens (Human), UniProt Q96SW2); experiment: fluorescence polarization (FP) assay, cereblon binding
Description: Compound activity was monitored in a fluorescence polarization (FP) homogeneous assay using 1-[5-({2-[2-(2-{[2-(2,6-dioxopiperidin-3-yl)-1,3-dioxo-2,3-dihydro-1H-isoindol-4-yl]oxy}acetamido)ethoxy]ethyl}carbamoyl)pentyl]-3,3-dimethyl-2-[(1E,3E)-5-[(2E)-1,3,3-trimethyl-5-sulfo-2,3-dihydro-1H-indol-2-ylidene]penta-1,3-dien-1-yl]-3H-indol-1-ium-5-sulfonate as a fluorescent probe. Unless otherwise stated, all reagents were purchased from Sigma Aldrich. […] Full length wild-type cereblon CRBN (80.0 nM, 10 μL) was incubated in assay buffer containing 20 mM HEPES (pH 8.0), […], 0.5 mM TCEP and 0.05% Tween 20 in the presence or absence of compound (300 nL). Inhibitors were stored as 10 mM DMSO stocks in an inert environment (low humidity, dark, low oxygen, room temperature) using the Storage Pod System. […] Following incubation at room temperature for 30 min, the assay was initiated by dispensing the probe to a final concentration of 5 nM (2.5 nL of a 20 μM stock) using the Echo ESXX. […] The FP signal was subsequently normalized to the no-compound control (i.e., DMSO). Analysis and IC50 values were derived using Dotmatics (Dotmatics UK) software.

GSPT1 = GSPT1 (Homo sapiens (Human), UniProt P15170+Q96SW2); experiment: immunofluorescence assay for GSPT1 degradation in CAL-51 cells (Example 4); type: cell-based
Description: The representative compounds were tested in an immunofluorescence assay for their activity to bind to degrade GSPT1. CAL-51 cells were purchased from DSMZ (cat. Number ACC302), sub-cultured in 90% Dulbecco's MEM (4.5 g/L glucose, Gibco 11965) +10% heat inactivated FBS (BioConcept, 2-01F136I) and incubated at 37° C., 5% CO2. For the assay, imaging microtiterplate Cell Carrier 96 Ultra (Perkin Elmer 6055302) were pre-coated with Fibronectin (Sigma F085, 30 μl at 0.2 μg/ml) in PBS (100 μl, Gibco 14190) for 45 min at room temperature, rinsed with PBS and CAL-51 cells (30 K cells/well) were plated and let to adhere overnight. Cells were treated with compounds typically using a serial dilution ranging from 30 μM to 0.1 nM for 6 hours. Compounds were stored at 10 mM DMSO stocks. Vehicle (DMSO), positive (CC-885, 10 μM) and rescue controls (positive control plus 0.2 μM bortezomib) were also included atthis stage. Cells were subsequently rinsed with PBS and fixed in 10% Formalin solution (50 μl, Sigma HT5011)) for 20 mins at room temperature. Following three consecutive PBS washes (100 μl), cells were permeabilized in 0.1% Triton X-100 in PBS (Sigma 93443, 50 μl) for 15 mins at room temperature. Following three further PBS washes, 50 μl blocking buffer (1% BSA, Sigma A4503, in PBS) was added for 45 min for signal-to-noise reduction.
Primary antibody (human GSPT1, Sigma HPA052488) was diluted in blocking buffer (dil.1/300, 35 μl/well) and incubated with the cells overnight at 4° C. After three PBS washes, Alexa-fluor 488 coupled secondary antibodies (Invitrogen, A32731, dil.1/1000), Alexa-fluor 647-Phalloidin (Invitrogen, A22287, dil.1/200) and DAPI (Thermo, #62248, dil.1/1000) were diluted in blocking buffer and incubated with the samples for 2 hours at room temperature. After three final PBS washes, samples were conserved in 100 μl PBS in the dark, until measurement. Image acquisition was performed on the Operetta High-Content Imager (Perkin-Elmer). Fluorescence intensity of Alexa-Fluor 488 (GSPT1), Alexa-Fluor 647 (Actin) and DAPI (Nucleus) were measured. For the determination of GSPT1 DC50 values, a custom algorithm implemented in the PerkinElmer image analysis software Harmony-Acapella® was developed. After user-defined setting of adjustment parameters, the analysis was run identically without human intervention for all image fields. DAPI staining of the nuclei was used to determine the location of cells using standard nuclei detection modules. Segmentation artifacts were removed by threshold-based filters for area, roundness and intensity. The outline of the cells was determined analogously from the sum of the normalized, smoothed DAPI and Actin channel, starting from each nucleus. The Alexa-Fluor 488 (GSPT1) signal intensity in each cell was finally measured, in order to obtain a Mean intensity per cell. GSPT1 degradation (DC50) was calculated after normalization to controls and data import in CDD vault Database, using non-linear regression.

[2] = 6 hours, read-out: Activity for GSPT1 degradation, Code (DC50)
[3] = GSPT1 degradation, read-out: DC50 value

Chain of Full length wild-type cereblon CRBN (Q96SW2 whole entry): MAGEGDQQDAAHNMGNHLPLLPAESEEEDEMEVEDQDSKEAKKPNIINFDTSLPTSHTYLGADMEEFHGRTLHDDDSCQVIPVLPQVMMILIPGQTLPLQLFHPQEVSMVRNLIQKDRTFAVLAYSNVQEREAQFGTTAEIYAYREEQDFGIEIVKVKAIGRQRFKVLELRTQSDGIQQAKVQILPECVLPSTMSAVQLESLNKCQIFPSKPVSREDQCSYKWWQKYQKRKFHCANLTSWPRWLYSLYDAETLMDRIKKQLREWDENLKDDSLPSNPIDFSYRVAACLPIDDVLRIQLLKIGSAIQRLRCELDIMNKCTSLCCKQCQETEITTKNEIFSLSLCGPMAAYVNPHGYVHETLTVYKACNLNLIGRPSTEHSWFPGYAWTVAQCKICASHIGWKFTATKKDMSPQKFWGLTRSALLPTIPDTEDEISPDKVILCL
Chain of GSPT1 (P15170 whole entry): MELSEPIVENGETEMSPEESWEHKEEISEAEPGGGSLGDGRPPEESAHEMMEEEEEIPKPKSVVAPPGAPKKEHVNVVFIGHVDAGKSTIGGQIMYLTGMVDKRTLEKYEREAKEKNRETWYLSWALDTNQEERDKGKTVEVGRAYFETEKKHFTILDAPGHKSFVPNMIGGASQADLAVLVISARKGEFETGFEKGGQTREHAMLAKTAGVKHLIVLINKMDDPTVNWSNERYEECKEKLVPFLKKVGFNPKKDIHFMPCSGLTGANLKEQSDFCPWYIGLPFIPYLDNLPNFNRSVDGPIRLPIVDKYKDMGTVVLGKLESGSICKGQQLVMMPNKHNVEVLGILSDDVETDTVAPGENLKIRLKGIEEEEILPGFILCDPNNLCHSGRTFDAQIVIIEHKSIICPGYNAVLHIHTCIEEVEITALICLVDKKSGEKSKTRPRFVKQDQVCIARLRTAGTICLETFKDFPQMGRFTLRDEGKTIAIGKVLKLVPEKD
Chain of GSPT1 (Q96SW2 whole entry): as the sequence (Q96SW2 whole entry) above
Chain of GSPT1 (Q16531 2-1140 partner): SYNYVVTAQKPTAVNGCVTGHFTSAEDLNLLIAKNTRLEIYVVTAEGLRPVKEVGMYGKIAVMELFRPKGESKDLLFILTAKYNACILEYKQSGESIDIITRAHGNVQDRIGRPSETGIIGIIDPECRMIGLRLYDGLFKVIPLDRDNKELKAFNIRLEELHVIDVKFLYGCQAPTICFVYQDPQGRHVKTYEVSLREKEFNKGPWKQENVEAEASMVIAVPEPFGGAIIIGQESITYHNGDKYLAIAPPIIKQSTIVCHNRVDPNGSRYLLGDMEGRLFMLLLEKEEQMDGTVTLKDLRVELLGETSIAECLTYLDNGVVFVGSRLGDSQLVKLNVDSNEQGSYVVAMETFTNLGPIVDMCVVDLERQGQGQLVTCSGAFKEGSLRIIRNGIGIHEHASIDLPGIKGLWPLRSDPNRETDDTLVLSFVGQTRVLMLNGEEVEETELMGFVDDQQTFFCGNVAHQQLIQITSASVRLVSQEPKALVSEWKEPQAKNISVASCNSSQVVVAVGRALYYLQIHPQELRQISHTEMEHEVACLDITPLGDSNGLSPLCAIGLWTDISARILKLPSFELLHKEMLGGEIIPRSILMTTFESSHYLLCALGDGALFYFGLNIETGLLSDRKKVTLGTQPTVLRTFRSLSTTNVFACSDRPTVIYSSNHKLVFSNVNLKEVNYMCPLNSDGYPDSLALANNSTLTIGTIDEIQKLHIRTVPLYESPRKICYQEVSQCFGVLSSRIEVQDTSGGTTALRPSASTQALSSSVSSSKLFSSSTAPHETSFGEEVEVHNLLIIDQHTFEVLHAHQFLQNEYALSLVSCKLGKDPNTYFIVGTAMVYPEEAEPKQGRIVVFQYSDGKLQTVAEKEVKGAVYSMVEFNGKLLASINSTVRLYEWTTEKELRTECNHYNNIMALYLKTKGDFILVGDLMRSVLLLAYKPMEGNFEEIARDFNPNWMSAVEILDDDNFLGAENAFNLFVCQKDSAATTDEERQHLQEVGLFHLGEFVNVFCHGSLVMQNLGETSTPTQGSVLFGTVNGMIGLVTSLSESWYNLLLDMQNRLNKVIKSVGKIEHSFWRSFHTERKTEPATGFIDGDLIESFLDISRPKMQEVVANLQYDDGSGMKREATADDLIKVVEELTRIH

SMILES | IC50 ([1]; read-out: IC50 value) | DC50 (GSPT1; [2]) | DC50 (GSPT1; [3]) | IC50 ([1]; read-out: rFP IC50)
O=C1CCC(N2Cc3ccc(COC(=O)Nc4cc(CN5CCOCC5)cc(OC(F)(F)F)c4)cc3C2=O)C(=O)N1 (stereo not shown) [Compound 4] | < 1100 nM | < 30 nM | ≤ 30 nM | –
O=C1CCC(N2Cc3ccc(COC(=O)Nc4ccc(N5CC6CCC(C5)O6)nc4)cc3C2=O)C(=O)N1 (stereo not shown) [Compound 65] | – | > 300 nM | – | < 500 nM
O=C1CCC(N2Cc3ccc(COC(=O)Nc4cc(-c5ccccc5)ccn4)cc3C2=O)C(=O)N1 (stereo not shown) [Compound 155, (2-(2,6-dioxopiperidin-3-yl)-3-oxoisoindolin-5-yl)methyl (4-phenylpyridin-2-yl)carbamate] | – | 30 to 300 nM | – | > 1700 nM
COc1cc(NC(=O)OCc2ccc3c(c2)C(=O)N(C2CCC(=O)NC2=O)C3)cnc1C (stereo not shown) [Compound 51] | < 1100 nM | 30 to 300 nM | – | –
Cc1ccc(NC(=O)OCc2ccc3c(c2)C(=O)N(C2CCC(=O)NC2=O)C3)cc1C (stereo not shown) [Compound 129] | – | 30 to 300 nM | – | < 500 nM
O=C1CCC(N2Cc3ccc(COC(=O)N4CCCCC4)cc3C2=O)C(=O)N1 (stereo not shown) [Compound 23] | – | > 300 nM | – | < 500 nM
CN(C)C1CN(c2ccc(NC(=O)OCc3ccc4c(c3)C(=O)N(C3CCC(=O)NC3=O)C4)cn2)C1 (stereo not shown) [Compound 89] | < 1100 nM | > 300 nM | – | –
O=C1CCC(N2Cc3ccc(COC(=O)Nc4ccc(C5CCC5)nc4)cc3C2=O)C(=O)N1 (stereo not shown) [Compound 105] | < 1100 nM | 30 to 300 nM | – | –
O=C1CCC(N2Cc3ccc(COC(=O)Nc4cnc5c(c4)CCC5)cc3C2=O)C(=O)N1 (stereo not shown) [Compound 53] | < 1100 nM | 30 to 300 nM | – | –
CC1CCCCN1c1ccc(NC(=O)OCc2ccc3c(c2)C(=O)N(C2CCC(=O)NC2=O)C3)cn1 (stereo not shown) [Compound 77] | < 1100 nM | < 30 nM | ≤ 30 nM | –
CC1(C)COc2cc(NC(=O)OCc3ccc4c(c3)C(=O)N(C3CCC(=O)NC3=O)C4)ccc21 (stereo not shown) [Compound 83] | < 1100 nM | < 30 nM | ≤ 30 nM | –
Cc1cc(NC(=O)OCc2ccc3c(c2)C(=O)N(C2CCC(=O)NC2=O)C3)cnc1-c1ccccc1 (stereo not shown) [Compound 88] | < 1100 nM | < 30 nM | ≤ 30 nM | –
O=C1CCC(N2Cc3ccc(COC(=O)Nc4ccc(C5CC5)nc4)cc3C2=O)C(=O)N1 (stereo not shown) [Compound 80] | – | 30 to 300 nM | – | < 500 nM
O=C1CCC(N2Cc3ccc(COC(=O)Nc4cc(Cl)cc(OCC5CCNC5)c4)cc3C2=O)C(=O)N1 (stereo not shown) [Compound 16] | – | > 300 nM | – | < 500 nM
CC1(c2ccc(NC(=O)OCc3ccc4c(c3)C(=O)N(C3CCC(=O)NC3=O)C4)cc2)CC1 (stereo not shown) [Compound 58] | < 1100 nM | < 30 nM | ≤ 30 nM | –
COc1ccccc1-c1ccc(NC(=O)OCc2ccc3c(c2)C(=O)N(C2CCC(=O)NC2=O)C3)cn1 (stereo not shown) [Compound 87] | < 1100 nM | < 30 nM | ≤ 30 nM | –
O=C1CCC(N2Cc3ccc(COC(=O)Nc4ccc5c(c4)OCC5)cc3C2=O)C(=O)N1 (stereo not shown) [Compound 18] | < 1100 nM | 30 to 300 nM | – | –

— patent publication US11912682B2, “Isoindolinone compounds” (Monte Rosa Therapeutics, Inc., priority 2021, dated 2024)
